Experimental data reported in BindingDB's records for doi:10.1021/jm101144f (Dana-Farber Cancer Institute, 2010).

Assay: Inhibition of PI3Kalpha in human PC3 cells expressing Akt1 S473D mutant assessed as phosphorylation of Akt Thr308 by immunoblotting

IC50: > 300 nM
SMILES: COCCC(=O)N1CCN(c2ccc(Nc3ccnc4ccc(-c5cnc6ccccc6c5)cc34)cc2C(F)(F)F)CC1 [1-(4-(4-([3,6'-biquinolin]-4'-ylamino)-2-(trifluoromethyl)phenyl)piperazin-1-yl)-3-methoxypropan-1-one]
